{"source": "patent US20220112479A1", "about": "“COMPOUNDS STABILIZING AMYLASES IN LIQUIDS” (BASF SE, priority 2018, published 2022)", "type_in_all_cases": "biochemical", "parameters_in_all_cases": "key: % of activity in reference formulation at time 0", "key": {"[1]": {"system": "Amylase", "assay": "amylase storage stability in liquid laundry formulation (pNP release from Ethyliden-blocked-pNPG7)", "conditions": "2.5 wt % component (a), storage at 37° C.", "procedure": "The storage stability of amylase was assessed at 37° C.\nBase test formulations were manufactured by making base formulations VI to IX by mixing the components according to Table 4.\nAmylase activity at certain points in time as indicated in Table 5 was measured quantitatively by the release of the chromophore para-nitrophenol (pNP) from the substrate (Ethyliden-blocked-pNPG7, Roche Applied Science 10880078103). The alpha-amylase degrades the substrate into smaller molecules and α-glucosidase (Roche Applied Science 11626329103), which is present in excess compared to the amylase, process these smaller products until pNP is released; the release of pNP, measured via an increase of absorption at 405 nm, is directly proportional to the amylase activity of the sample. Amylase standard: Termamyl 120 L (Sigma 3403).\nThe amylolytic activity values provided were calculated referring to the value determined in the reference formulation at the time 0.\nThe nomenclature of formulations is as follows: the Roman number before the full stop characterizes the base formulation, the Arabian number the type of compound (A.# compound according to invention (component (a)); B.# comparative compound)."}, "[2]": {"system": "Amy2=Amplify", "assay": "amylase storage stability in liquid formulation (pNP release from Ethyliden-blocked-pNPG7)", "conditions": "base formulation III., 1.5 wt % component (a), storage at 37° C.", "procedure": "(§1) The storage stability of amylase was assessed at 37° C. Base test formulations were manufactured by making base formulations I to V by mixing the components according to Table 1. Amylases used: Amy1=Stainzyme, Amy2=Amplify, Amy3=Stainzyme Plus L (12L) The respective component (a) or comparative compound was added, if applicable, to the respective base formulation in amounts as indicated in Table 1. The amount of amylase as provided in Table 1 refers to active protein. Water was added to accomplish the balance to 100. […] Amylase activity at certain points in time as indicated in Table 2 was measured quantitatively by the release of the chromophore para-nitrophenol (pNP) from the substrate ([…]-blocked-pNPG7, Roche Applied Science 10880078103). The alpha-amylase degrades the substrate into smaller molecules and α-glucosidase (Roche Applied Science 11626329103), which is present in excess compared to the amylase, process these smaller products until pNP is released; the release of pNP, measured via an increase of absorption at 405 nm, is directly proportional to the amylase activity of the sample. Amylase standard: […] 120 L (Sigma 3403). […] The amylolytic activity values provided were calculated referring to the value determined in the reference formulation at the time 0. The nomenclature of formulations is as follows: the Roman number before the full stop characterizes the base formulation, the Arabian number the type of compound (A.# compound according to invention (component (a)); B.# comparative compound)."}, "[3]": {"system": "Amy1=Stainzyme", "assay": "amylase storage stability in liquid formulation (pNP release from Ethyliden-blocked-pNPG7)", "conditions": "base formulation I., 1.5 wt % component (a), storage at 37° C.", "procedure": "as §1"}}, "data": [{"smiles": "CCOC(=O)CC(CC(=O)OCC)(OC(C)=O)C(=O)OCC", "note": "[A.5, Acetyltriethylcitrate]", "values": [{"measurement": "amylase activity, referring to reference formulation at time 0", "setting": "[1]; laundry base formulation IX. (2.5 DTPA), 3 d", "value": 91}, {"measurement": "amylase activity, referring to reference formulation at time 0", "setting": "[1]; laundry base formulation IX. (2.5 DTPA), 7 d", "value": 78}, {"measurement": "amylase activity, referring to reference formulation at time 0", "setting": "[1]; laundry base formulation IX. (2.5 DTPA), 14 d", "value": 69}, {"measurement": "amylase activity, referring to reference formulation at time 0", "setting": "[1]; laundry base formulation IX. (2.5 DTPA), 21 d", "value": 61}, {"measurement": "amylase activity, referring to reference formulation at time 0", "setting": "[1]; laundry base formulation IX. (2.5 DTPA), 28 d", "value": 53}, {"measurement": "amylase activity, referring to reference formulation at time 0", "setting": "[1]; laundry base formulation IX. (2.5 DTPA), T0", "value": 98}, {"measurement": "amylase activity, referring to reference formulation at time 0", "setting": "[1]; laundry base formulation VII. (2.0 EDTA), 3 d", "value": 92}, {"measurement": "amylase activity, referring to reference formulation at time 0", "setting": "[1]; laundry base formulation VII. (2.0 EDTA), 7 d", "value": 81}, {"measurement": "amylase activity, referring to reference formulation at time 0", "setting": "[1]; laundry base formulation VII. (2.0 EDTA), 14 d", "value": 72}, {"measurement": "amylase activity, referring to reference formulation at time 0", "setting": "[1]; laundry base formulation VII. (2.0 EDTA), 21 d", "value": 66}, {"measurement": "amylase activity, referring to reference formulation at time 0", "setting": "[1]; laundry base formulation VII. (2.0 EDTA), 28 d", "value": 61}, {"measurement": "amylase activity, referring to reference formulation at time 0", "setting": "[1]; laundry base formulation VII. (2.0 EDTA), T0", "value": 98}, {"measurement": "amylase activity, referring to reference formulation at time 0", "setting": "[1]; laundry base formulation VIII. (2.5 DTPA, no Savinase), 3 d", "value": 93}, {"measurement": "amylase activity, referring to reference formulation at time 0", "setting": "[1]; laundry base formulation VIII. (2.5 DTPA, no Savinase), 7 d", "value": 83}, {"measurement": "amylase activity, referring to reference formulation at time 0", "setting": "[1]; laundry base formulation VIII. (2.5 DTPA, no Savinase), 14 d", "value": 74}, {"measurement": "amylase activity, referring to reference formulation at time 0", "setting": "[1]; laundry base formulation VIII. (2.5 DTPA, no Savinase), 21 d", "value": 67}, {"measurement": "amylase activity, referring to reference formulation at time 0", "setting": "[1]; laundry base formulation VIII. (2.5 DTPA, no Savinase), 28 d", "value": 64}, {"measurement": "amylase activity, referring to reference formulation at time 0", "setting": "[1]; laundry base formulation VIII. (2.5 DTPA, no Savinase), T0", "value": 100}, {"measurement": "amylase activity, referring to reference formulation at time 0", "setting": "[2]; 3 d", "value": 96}, {"measurement": "amylase activity, referring to reference formulation at time 0", "setting": "[2]; 7 d", "value": 92}, {"measurement": "amylase activity, referring to reference formulation at time 0", "setting": "[2]; 14 d", "value": 87}, {"measurement": "amylase activity, referring to reference formulation at time 0", "setting": "[2]; 21 d", "value": 78}, {"measurement": "amylase activity, referring to reference formulation at time 0", "setting": "[2]; 28 d", "value": 71}, {"measurement": "amylase activity, referring to reference formulation at time 0", "setting": "[2]; 42 d", "value": 55}, {"measurement": "amylase activity, referring to reference formulation at time 0", "setting": "[2]; T0", "value": 96}, {"measurement": "amylase activity, referring to reference formulation at time 0", "setting": "[3]; 3 d", "value": 91}, {"measurement": "amylase activity, referring to reference formulation at time 0", "setting": "[3]; 7 d", "value": 80}, {"measurement": "amylase activity, referring to reference formulation at time 0", "setting": "[3]; 14 d", "value": 72}, {"measurement": "amylase activity, referring to reference formulation at time 0", "setting": "[3]; 21 d", "value": 63}, {"measurement": "amylase activity, referring to reference formulation at time 0", "setting": "[3]; 28 d", "value": 55}, {"measurement": "amylase activity, referring to reference formulation at time 0", "setting": "[3]; 42 d", "value": 37}, {"measurement": "amylase activity, referring to reference formulation at time 0", "setting": "[3]; T0", "value": 97}]}]}
